Measurements published in US10766929B2, “De novo designed hemagglutinin binding proteins” (UNIVERSITY OF WASHINGTON, priority 2017, dated 2020).
≈ marks a conversion by molar mass, not a printed value. Positions of bridges follow the written chain, without caps; N, C: chain ends. Residues, ends and D or L forms follow the SMILES beside them. No end group written: not given here.

Tests used:
[1] = test system: H1N1 (CA09) influenza virus; set-up: species or system Ferrets; details: in vivo
[2] = test system: A/California/04/09 (H1N1) (CA09); set-up: species or system BALB/c mice; details: mouse, in vivo
CA09 influenza virus = type: cell-based, influenza virus (Madin-Darby Canine Kidney Epithelial Cells)
biotinylated HA proteins = type: physicochemical, influenza
PR8 influenza virus = type: cell-based, influenza virus (Madin-Darby Canine Kidney Epithelial Cells)
[3] = test system: flu virus strains Ca0409 and Ft. Monmout; details: both strains

Compound | EC50 for inhibition of viral replication in vitro (Virus Ca0409) | EC50 for inhibition of viral replication in vitro (Virus Ft. Monmouth) | changes in temperature [1] | clinical signs of disease [1] | weight loss [1] | dose fold lower on a mass basis than the FI6v3 dose required for equivalent protection [2] | survival [2] | weight loss [2] | protection ([2]; iv) | EC50 fold lower than FI6v3 and HB36.6 on a mass basis (CA09 influenza virus) | EC50 versus FI6v3 and HB36.6 on a molar basis (CA09 influenza virus) | loss of binding activity after high temperature exposure (biotinylated HA proteins) | EC50 fold lower than FI6v3 and HB36.6 on a mass basis (PR8 influenza virus) | EC50 versus FI6v3 and HB36.6 on a molar basis (PR8 influenza virus) | IC50 against flu virus strains Ca0409 and Ft. Monmout [3]
CC[C@H](C)[C@@H]1NC(=O)[C@H](CCC(=O)O)NC(=O)[C@H](C)NC(=O)[C@H](C)NC(=O)[C@H]([C@@H](C)O)NC(=O)[C@H](CCC(N)=O)NC(=O)[C@H](C)NC(=O)[C@H](C)NC(=O)[C@H](Cc2ccccc2)NC(=O)[C@H](CC(C)C)NC(=O)[C@H]([C@@H](C)O)NC(=O)[C@H]([C@@H](C)O)NC(=O)[C@H](Cc2ccccc2)NC(=O)[C@H](CO)NC(=O)[C@H](CCC(N)=O)NC(=O)[C@H](CCC(=O)O)NC(=O)[C@H]([C@@H](C)CC)NC(=O)[C@@H](N)CSSC[C@@H](C(=O)O)NC(=O)[C@H](C(C)C)NC(=O)[C@H](Cc2c[nH]cn2)NC(=O)[C@H](CC(C)C)NC(=O)[C@H](CCCNC(=N)N)NC(=O)[C@H](Cc2c[nH]c3ccccc23)NC(=O)[C@H](CC(N)=O)NC(=O)CNC(=O)[C@H](CC(N)=O)NC(=O)[C@H](CC(=O)O)NC(=O)[C@H](CCC(N)=O)NC(=O)[C@H](CCSC)NC(=O)[C@H]([C@@H](C)CC)NC(=O)[C@H](CCCCN)NC(=O)[C@H](C(C)C)NC(=O)[C@H]([C@@H](C)O)NC(=O)[C@H](Cc2ccc(O)cc2)NC(=O)CNC(=O)[C@H](Cc2ccccc2)NC(=O)[C@H](C)NC(=O)[C@H](CCCNC(=N)N)NC(=O)[C@H](Cc2c[nH]c3ccccc23)NC1=O [AQW CS15989] (H-CIEQSFTTLFAAQTAAEIWRAFGYTVKIMQDNGNWRLHVC-OH; disulfide 1-40; N-terminus and C-terminus assumed) | 10 ng/mL | 10 ng/mL |  |  |  |  |  |  |  |  |  |  |  |  | 
TIEQSFTTLFAAQTAAEIWRAFGYTVKIMQDNGNWRLHVT [TAWQT CS15990] | 20 ng/mL | 2 ng/mL |  |  |  |  |  |  |  |  |  |  |  |  | 
CC[C@H](C)[C@@H]1NC(=O)[C@H](CCC(=O)O)NC(=O)[C@H](C)NC(=O)[C@H](C)NC(=O)[C@H]([C@@H](C)O)NC(=O)[C@H](CCC(N)=O)NC(=O)[C@@H]2CSSC[C@H](NC(=O)[C@H](CC(N)=O)NC(=O)CNC(=O)[C@H](CC(N)=O)NC(=O)[C@H](CC(=O)O)NC(=O)[C@H](C(C)C)NC(=O)[C@H](CCSC)NC(=O)[C@H]([C@@H](C)CC)NC(=O)[C@H](CCCCN)NC(=O)[C@H](C(C)C)NC(=O)[C@H]([C@@H](C)O)NC(=O)[C@H](Cc3ccc(O)cc3)NC(=O)CNC(=O)[C@H](Cc3ccccc3)NC(=O)[C@H](C)NC(=O)[C@H](CCCNC(=N)N)NC(=O)[C@H](Cc3c[nH]c4ccccc34)NC1=O)C(=O)N[C@@H](CCCNC(=N)N)C(=O)N[C@@H](CC(C)C)C(=O)N[C@@H](Cc1c[nH]cn1)C(=O)N[C@@H](C(C)C)C(=O)N[C@H](C(=O)O)CSSC[C@H](N)C(=O)N[C@@H]([C@@H](C)CC)C(=O)N[C@@H](CCC(=O)O)C(=O)N[C@@H](CCC(N)=O)C(=O)N[C@@H](CO)C(=O)N[C@@H](Cc1ccccc1)C(=O)N[C@@H]([C@@H](C)O)C(=O)N[C@@H]([C@@H](C)O)C(=O)N[C@@H](CC(C)C)C(=O)N[C@@H](Cc1ccccc1)C(=O)N[C@@H](C)C(=O)N2 [HB1.6928.2.3] (H-CIEQSFTTLFACQTAAEIWRAFGYTVKIMVDNGNCRLHVC-OH; disulfide 1-40, 12-35; N-terminus and C-terminus assumed) |  | 0.02 ng/mL | no significant changes in temperature | minimal clinical signs of disease | no significant weight loss | 100 fold | 100% | < 10% | little protection | more than 100 fold | comparable | no detectable loss of binding | more than 100 fold | comparable | ~0.02 ng/mL (≈ 0.00441 nM)
